ChEMBL document CHEMBL3045521, “Synthesis and evaluation of anti-inflammatory, analgesic, ulcerogenicity and nitric oxide-releasing studies of novel ibuprofen analogs as nonulcerogenic derivatives” (Med Chem Res, 2011)
Values after ≈ are worked out from the molar mass of the structure shown.

What was measured:
Mus musculus [1] = test: Analgesic activity in Mus musculus (mouse) assessed as inhibition of acetic acid-induced writhing at 49.46 mg/kg, po measured after 5 min for 15 min relative to control; format: functional
[2] = Induction of nitric oxide release at 10^-4 M after 1 hr by Griess method relative to control; format: physicochemical; settings: 100 µM
Rattus norvegicus [3] = test: Anti-inflammatory activity in Rattus norvegicus Wistar albino (rat) assessed as carrageenan-induced paw edema at 66.69 mg/kg, po administered 1 hr prior to carrageenan-challenge measured at 1 hr relative to control; format: functional
Rattus norvegicus [4] = test: Anti-inflammatory activity in Rattus norvegicus Wistar albino (rat) assessed as carrageenan-induced paw edema at 66.69 mg/kg, po administered 1 hr prior to carrageenan-challenge measured at 2 hr relative to control; format: functional
Aorta = test: Vasorelaxant activity in normotensive Rattus norvegicus Wistar albino (rat) aorta assessed as inhibition of norepinephrine-induced contraction; format: functional, tissue-based
Rattus norvegicus [5] = test: Anti-inflammatory activity in Rattus norvegicus Wistar albino (rat) assessed as carrageenan-induced paw edema at 66.69 mg/kg, po administered 1 hr prior to carrageenan-challenge measured at 3 hr relative to control; format: functional
Rattus norvegicus [6] = test: Anti-inflammatory activity in Rattus norvegicus Wistar albino (rat) assessed as carrageenan-induced paw edema at 51.06 mg/kg, po administered 1 hr prior to carrageenan-challenge measured at 3 hr relative to control; format: functional
Rattus norvegicus [7] = test: Anti-inflammatory activity in Rattus norvegicus Wistar albino (rat) assessed as carrageenan-induced paw edema at 51.06 mg/kg, po administered 1 hr prior to carrageenan-challenge measured at 2 hr relative to control; format: functional
Rattus norvegicus [8] = test: Gastrointestinal toxicity against Rattus norvegicus Wistar albino (rat) assessed as disruption of mucosal layer at 61.2 mg/kg po by HE-staining based […] microscopic analysis; format: organism-based; design: dose 61.2 mg/kg, route oral; settings: in vivo
Mus musculus [9] = test: Analgesic activity in Mus musculus (mouse) assessed as inhibition of acetic acid-induced writhing at 37.87 mg/kg, po measured after 5 min for 15 min relative to control; format: functional
Rattus norvegicus [10] = test: Anti-inflammatory activity in Rattus norvegicus Wistar albino (rat) assessed as carrageenan-induced paw edema at 51.06 mg/kg, po administered 1 hr prior to carrageenan-challenge measured at 1 hr relative to control; format: functional
Rattus norvegicus [11] = test: Anti-inflammatory activity in Rattus norvegicus Wistar albino (rat) assessed as carrageenan-induced paw edema at 49.7 mg/kg, po administered 1 hr prior to carrageenan-challenge measured at 1 hr relative to control; format: functional
Mus musculus [12] = test: Analgesic activity in Mus musculus (mouse) assessed as inhibition of acetic acid-induced writhing at 37.28 mg/kg, po measured after 5 min for 15 min relative to control; format: functional
Rattus norvegicus [13] = test: Anti-inflammatory activity in Rattus norvegicus Wistar albino (rat) assessed as carrageenan-induced paw edema at 49.7 mg/kg, po administered 1 hr prior to carrageenan-challenge measured at 2 hr relative to control; format: functional
Rattus norvegicus [14] = test: Anti-inflammatory activity in Rattus norvegicus Wistar albino (rat) assessed as carrageenan-induced paw edema at 49.7 mg/kg, po administered 1 hr prior to carrageenan-challenge measured at 3 hr relative to control; format: functional
Rattus norvegicus [15] = test: Gastrointestinal toxicity against Rattus norvegicus Wistar albino (rat) assessed as disruption of mucosal layer at 59.64 mg/kg po by HE-staining based […] microscopic analysis; format: organism-based; design: dose 59.64 mg/kg, route oral; settings: in vivo
Rattus norvegicus [16] = test: Anti-inflammatory activity in Rattus norvegicus Wistar albino (rat) assessed as carrageenan-induced paw edema at 63.98 mg/kg, po administered 1 hr prior to carrageenan-challenge measured at 1 hr relative to control; format: functional
Mus musculus [17] = test: Analgesic activity in Mus musculus (mouse) assessed as inhibition of acetic acid-induced writhing at 47.98 mg/kg, po measured after 5 min for 15 min relative to control; format: functional
Rattus norvegicus [18] = test: Anti-inflammatory activity in Rattus norvegicus Wistar albino (rat) assessed as carrageenan-induced paw edema at 63.98 mg/kg, po administered 1 hr prior to carrageenan-challenge measured at 3 hr relative to control; format: functional
Rattus norvegicus [19] = test: Anti-inflammatory activity in Rattus norvegicus Wistar albino (rat) assessed as carrageenan-induced paw edema at 63.98 mg/kg, po administered 1 hr prior to carrageenan-challenge measured at 2 hr relative to control; format: functional
Rattus norvegicus [20] = test: Anti-inflammatory activity in Rattus norvegicus Wistar albino (rat) assessed as carrageenan-induced paw edema at 48.34 mg/kg, po administered 1 hr prior to carrageenan-challenge measured at 3 hr relative to control; format: functional
Mus musculus [21] = test: Analgesic activity in Mus musculus (mouse) assessed as inhibition of acetic acid-induced writhing at 35.85 mg/kg, po measured after 5 min for 15 min relative to control; format: functional
Rattus norvegicus [22] = test: Anti-inflammatory activity in Rattus norvegicus Wistar albino (rat) assessed as carrageenan-induced paw edema at 48.34 mg/kg, po administered 1 hr prior to carrageenan-challenge measured at 2 hr relative to control; format: functional
Rattus norvegicus [23] = test: Gastrointestinal toxicity against Rattus norvegicus Wistar albino (rat) assessed as disruption of mucosal layer at 57.96 mg/kg po by HE-staining based […] microscopic analysis; format: organism-based; design: dose 57.96 mg/kg, route oral; settings: in vivo
Rattus norvegicus [24] = test: Anti-inflammatory activity in Rattus norvegicus Wistar albino (rat) assessed as carrageenan-induced paw edema at 48.34 mg/kg, po administered 1 hr prior to carrageenan-challenge measured at 1 hr relative to control; format: functional
Rattus norvegicus [25] = test: Gastrointestinal toxicity against Rattus norvegicus Wistar albino (rat) assessed as disruption of mucosal layer at 24 mg/kg po by HE-staining based […] microscopic analysis; format: organism-based; design: dose 24 mg/kg, route oral; settings: in vivo
Rattus norvegicus [26] = test: Anti-inflammatory activity in Rattus norvegicus Wistar albino (rat) assessed as carrageenan-induced paw edema at 20 mg/kg, po administered 1 hr prior to carrageenan-challenge measured at 2 hr relative to control; format: functional
Mus musculus [27] = test: Analgesic activity in Mus musculus (mouse) assessed as inhibition of acetic acid-induced writhing at 15 mg/kg, po measured after 5 min for 15 min relative to control; format: functional
Rattus norvegicus [28] = test: Anti-inflammatory activity in Rattus norvegicus Wistar albino (rat) assessed as carrageenan-induced paw edema at 20 mg/kg, po administered 1 hr prior to carrageenan-challenge measured at 3 hr relative to control; format: functional
Rattus norvegicus [29] = test: Anti-inflammatory activity in Rattus norvegicus Wistar albino (rat) assessed as carrageenan-induced paw edema at 20 mg/kg, po administered 1 hr prior to carrageenan-challenge measured at 1 hr relative to control; format: functional

## CC(C)Cc1ccc(C(C)c2n[nH]c(=S)n2-c2ccc(C(=O)NNC(=O)CCO[N+](=O)[O-])c(C(=O)NNC(=O)CCO[N+](=O)[O-])c2)cc1 (stereo not given)
Mus musculus [1]
  inhibition in vivo at 49.46 mg/kg: 48.6%
[2]
  Activity: 0.57%
Rattus norvegicus [3]
  inhibition in vivo at 66.69 mg/kg: 27.9%
Rattus norvegicus [4]
  inhibition in vivo at 66.69 mg/kg: 29.9%
Aorta
  EC50: 34.9 µg/mL (≈ 50.7 µM)
Rattus norvegicus [5]
  inhibition in vivo at 66.69 mg/kg: 31.9%

## CC(C)Cc1ccc(C(C)c2n[nH]c(=S)n2-c2ccccc2CC(=O)NNC(=O)CCO[N+](=O)[O-])cc1 (stereo not given)
Rattus norvegicus [6]
  inhibition in vivo at 51.06 mg/kg: 61.8%
[2]
  Activity: 0.32%
Rattus norvegicus [7]
  inhibition in vivo at 51.06 mg/kg: 56.5%
Rattus norvegicus [8]
  Activity: Non-toxic
Mus musculus [9]
  inhibition in vivo at 37.87 mg/kg: 56.1%
Aorta
  EC50: 58.6 µg/mL (≈ 111 µM)
Rattus norvegicus [10]
  inhibition in vivo at 51.06 mg/kg: 51.5%

## CC(C)Cc1ccc(C(C)c2n[nH]c(=S)n2-c2ccccc2CC(=O)NNC(=O)CO[N+](=O)[O-])cc1 (stereo not given)
[2]
  Activity: 0.35%
Rattus norvegicus [11]
  inhibition in vivo at 49.7 mg/kg: 54.5%
Mus musculus [12]
  inhibition in vivo at 37.28 mg/kg: 59%
Rattus norvegicus [13]
  inhibition in vivo at 49.7 mg/kg: 58.8%
Rattus norvegicus [14]
  inhibition in vivo at 49.7 mg/kg: 62.8%
Aorta
  EC50: 55.3 µg/mL (≈ 108 µM)
Rattus norvegicus [15]
  Activity: Non-toxic

## CC(C)Cc1ccc(C(C)c2n[nH]c(=S)n2-c2ccc(C(=O)NNC(=O)CO[N+](=O)[O-])c(C(=O)NNC(=O)CO[N+](=O)[O-])c2)cc1 (stereo not given)
[2]
  Activity: 0.42%
Rattus norvegicus [16]
  inhibition in vivo at 63.98 mg/kg: 38.8%
Mus musculus [17]
  inhibition in vivo at 47.98 mg/kg: 52.6%
Rattus norvegicus [18]
  inhibition in vivo at 63.98 mg/kg: 41.9%
Rattus norvegicus [19]
  inhibition in vivo at 63.98 mg/kg: 40.1%
Aorta
  EC50: 38.7 µg/mL (≈ 58.6 µM)

## CC(C)Cc1ccc(C(C)c2n[nH]c(=S)n2-c2ccc(C(=O)NNC(=O)CCO[N+](=O)[O-])cc2)cc1 (stereo not given)
[2]
  Activity: 0.39%
Rattus norvegicus [11]
  inhibition in vivo at 49.7 mg/kg: 52.1%
Mus musculus [12]
  inhibition in vivo at 37.28 mg/kg: 64.8%
Rattus norvegicus [13]
  inhibition in vivo at 49.7 mg/kg: 57.1%
Rattus norvegicus [14]
  inhibition in vivo at 49.7 mg/kg: 61.8%
Aorta
  EC50: 30.5 µg/mL (≈ 59.5 µM)
Rattus norvegicus [15]
  Activity: Non-toxic

## CC(C)Cc1ccc(C(C)c2n[nH]c(=S)n2-c2ccc(C(=O)NNC(=O)CO[N+](=O)[O-])cc2)cc1 (stereo not given)
[2]
  Activity: 0.48%
Rattus norvegicus [20]
  inhibition in vivo at 48.34 mg/kg: 61.2%
Mus musculus [21]
  inhibition in vivo at 35.85 mg/kg: 63.6%
Rattus norvegicus [22]
  inhibition in vivo at 48.34 mg/kg: 56.5%
Rattus norvegicus [23]
  Activity: Non-toxic
Rattus norvegicus [24]
  inhibition in vivo at 48.34 mg/kg: 52.7%
Aorta
  EC50: 42.8 µg/mL (≈ 85.8 µM)

## O=C(O)Cc1ccccc1Nc1c(Cl)cccc1Cl [DICLOFENAC]
Rattus norvegicus [25]
  Activity: Toxic

## CC(C)Cc1ccc(C(C)C(=O)O)cc1 (stereo not given) [IBUPROFEN]
Rattus norvegicus [26]
  inhibition in vivo at 20 mg/kg: 58.2%
Mus musculus [27]
  inhibition in vivo at 15 mg/kg: 62.4%
Rattus norvegicus [28]
  inhibition in vivo at 20 mg/kg: 62.8%
Rattus norvegicus [29]
  inhibition in vivo at 20 mg/kg: 53.9%
